Converted amounts (≈) assume the structure as drawn. Like-named read-outs stand apart in the source and are kept apart here.
Assays:
[1] = system: Corynebacterium glutamicum ATCC 13032; assay: MIC assay, antibiotic susceptible reference strain; assay type: cell-based; conditions: Corynebacterium glutamicum, ATCC13032, read-out: Antimicrobial activity (MIC) C. g
Protocol: (§1) Working solutions of the test derivatives were prepared with up to 100% DMSO and stored at −20° C. If necessary, the solutions were heated to 40-80° C. before testing to facilitate complete dissolution. Double-distilled water was used in all dilutions prepared. […] A microdilution susceptibility test was used for MIC determination according to Clinical and Laboratory Standards Institute, “Methods for Dilution Antimicrobial Sisceptibility Tests for Bacteria That Graw Aerobically”, Approved Standard M07-A9, edition 2012, with modifications as described by Igumnova et al (Bioorg Med Chem, 2016, 24 (22), 5884-5894).
(§2) Briefly, the bacterial inoculum was adjusted to approximately 2.5-3×10^4 cells/mL in Mueller-Hinton broth (MHB, Difco Laboratories, USA), and incubated in a ratio of 1:1 with test derivatives in polystyrene 96-well flat-bottom microplates (NUNC, Roskilde, Denmark). Positive growth control (without test derivatives) and negative control (without bacteria) were included. The reference antibiotic was oxytetracycline hydrochloride (Sigma Aldrich, Saint Louis, Mo., USA). The microplates were incubated in an EnVision microplate reader (Perkin-Elmer, Turku, Finland) placed in an incubator set to 35° C. for 48 h. The MIC value was defined as the lowest concentration of derivative resulting in no bacterial growth as determined by OD600 measurement. All derivatives were tested in three parallels.

[2] = system: Escherichia coli ATCC 25922; assay: MIC assay, antibiotic susceptible reference strain; assay type: cell-based; conditions: Escherichia coli, ATCC25922, read-out: Antimicrobial activity (MIC) E. c
Protocol: as §1, §2

[3] = system: Pseudomonas aeruginosa PA01, DSM 19880 (ATCC 15692); assay: MIC assay, antibiotic susceptible reference strain; assay type: cell-based; conditions: Pseudomonas aeruginosa, read-out: Antimicrobial activity (MIC) P. a
Protocol: as §1, §2

[4] = system: Staphylococcus aureus ATCC 9144; assay: MIC assay, antibiotic susceptible reference strain; assay type: cell-based; conditions: Staphylococcus aureus, ATCC9144, read-out: Antimicrobial activity (MIC) S. a
Protocol: as §1, §2

[5] = system: E. faecium 50673722; assay: MIC, multi-resistant clinical isolate; assay type: cell-based, Enterococcus faecium; conditions: for MIC: Enterococcus faecium, read-out: Antimicrobial activity (MIC); for selectivity index (EC50/MIC): RBC EC50 / MIC
Protocol: as §1, §2
(§3) The MIC was determined as explained above with some exceptions; working solutions of test derivatives were prepared from concentrated DMSO stocks stored at room temperature, the density of the bacterial inoculum was increased 40× to 1-1.2×10^6 cells/mL, enterococci were incubated in Brain Heart Infusion broth (BHIB, Difco Laboratories, USA), the microplates were incubated for 24 h, and the derivatives were tested in four parallels.

[6] = system: E. faecium 50758899; assay: MIC, multi-resistant clinical isolate; assay type: cell-based, Enterococcus faecium; conditions: for MIC: Enterococcus faecium, read-out: Antimicrobial activity (MIC); for selectivity index (EC50/MIC): RBC EC50 / MIC
Protocol: as §1, §2, §3

[7] = system: E. faecium 50901530; assay: MIC, multi-resistant clinical isolate; assay type: cell-based, Enterococcus faecium; conditions: for MIC: Enterococcus faecium, read-out: Antimicrobial activity (MIC); for selectivity index (EC50/MIC): RBC EC50 / MIC
Protocol: as §1, §2, §3

[8] = system: E. faecium K36-18; assay: MIC, multi-resistant clinical isolate; assay type: cell-based, Enterococcus faecium; conditions: for MIC: Enterococcus faecium, K3618, read-out: Antimicrobial activity (MIC); for selectivity index (EC50/MIC): RBC EC50 / MIC, E. faecium K36-18
Protocol: as §1, §2, §3

[9] = system: E. faecium TUH50-22; assay: MIC, multi-resistant clinical isolate; assay type: cell-based, Enterococcus faecium; conditions: for MIC: Enterococcus faecium, TUH5022, read-out: Antimicrobial activity (MIC); for selectivity index (EC50/MIC): RBC EC50 / MIC
Protocol: as §1, §2, §3

[10] = system: K. pneumoniae 50531633; assay: MIC, multi-resistant clinical isolate; assay type: cell-based, Klebsiella pneumoniae; conditions: K. pneumoniae 50531633, resistant to colistin; for MIC: Klebsiella pneumoniae, 24 h, read-out: Antimicrobial activity (MIC); for selectivity index (EC50/MIC): RBC EC50 / MIC
Protocol: as §1, §2, §3

[11] = system: K. pneumoniae 50625602; assay: MIC, multi-resistant clinical isolate; assay type: cell-based, Klebsiella pneumoniae; conditions: for MIC: Klebsiella pneumoniae, read-out: Antimicrobial activity (MIC); for selectivity index (EC50/MIC): RBC EC50 / MIC
Protocol: as §1, §2, §3

[12] = system: K. pneumoniae 50667959; assay: MIC, multi-resistant clinical isolate; assay type: cell-based, Klebsiella pneumoniae; conditions: for MIC: Klebsiella pneumoniae, read-out: Antimicrobial activity (MIC); for selectivity index (EC50/MIC): RBC EC50 / MIC
Protocol: as §1, §2, §3

[13] = system: K. pneumoniae K47-25; assay: MIC, multi-resistant clinical isolate; assay type: cell-based, Klebsiella pneumoniae; conditions: for MIC: Klebsiella pneumoniae, K4725, 24 h, read-out: Antimicrobial activity (MIC)
Protocol: as §1, §2, §3

[14] = system: K. pneumoniae K66-45; assay: MIC, multi-resistant clinical isolate; assay type: cell-based, Klebsiella pneumoniae; conditions: for MIC: Klebsiella pneumoniae, K6645, read-out: Antimicrobial activity (MIC); for selectivity index (EC50/MIC): RBC EC50 / MIC, K. pneumoniae K66-45
Protocol: as §1, §2, §3

[15] = system: S. epidermidis; assay: Anti-biofilm activity (inhibition of biofilm formation); assay type: cell-based; conditions: Staphylococcus epidermidis, read-out: Anti-biofilm IC50
[16] = system: human metastatic melanoma (A2058, ATCC CRL-11147) cells; assay: Anti-cancer activity against A2058 cells; assay type: cell-based; conditions: A2058, read-out: Anti-cancer IC50
Protocol: Cytotoxicity of the test compounds was evaluated after 72 hour exposure to human metastatic melanoma (A2058, ATCC CRL-11147) cells.
A2058 cells were grown overnight (2,000 cells/well), and then incubated with the test compounds (range of concentrations) diluted in MEM Earle's supplemented with gentamycin (10 μg/mL), non-essential amino acids (1%), sodium pyruvate (1 mM), L-alanyl-Lglutamine (2 mM), but without FBS (total volume was 100 μl) for […]. Ten μL of CellTiter 96® AQueous One Solution Reagent (Promega, Madison, Wis., USA) was added, and the plates were then further incubated for 1 hour.
Absorbance was measured at 485 nm in a DTX 880 Multimode Detector. Results were calculated as % survival compared to negative (assay media) and positive (Triton X-100; Sigma-Aldrich) controls.

[17] = system: panel of 30 multi-resistant clinical isolates of Gram-positive and Gram-negative bacteria; assay: MIC screening, ranges over the panel of clinical isolates; assay type: cell-based; conditions: Enterococcus faecium, read-out: MIC values against the Gram-positive isolates of S. aurues and E. faecium
Protocol: as §1, §2, §3

NCCCCN1C(=O)N(CCCCN)C(=O)C(Cc2ccc3ccccc3c2)(Cc2ccc3ccccc3c2)C1=O [7(iv), 1,3-bis(4-aminobutyl)-5,5-bis(naphtalen-2-yl-methyl)-pyrimidin-2,4,6(1H,3H,5H)-trione]
MIC [1]: 1 mg/L (≈ 1.82 µM) | MIC [2]: 16 mg/L (≈ 29.1 µM) | MIC [3]: 16 mg/L (≈ 29.1 µM) | MIC [4]: 8 mg/L (≈ 14.5 µM) | MIC [5]: 16 mg/L (≈ 29.1 µM) | selectivity index (EC50/MIC) [5]: (15) | MIC [6]: 16 mg/L (≈ 29.1 µM) | selectivity index (EC50/MIC) [6]: (15) | MIC [7]: 8 mg/L (≈ 14.5 µM) | selectivity index (EC50/MIC) [7]: (30) | MIC [8]: 16 mg/L (≈ 29.1 µM) | selectivity index (EC50/MIC) [8]: (15) | MIC [9]: 8 mg/L (≈ 14.5 µM) | selectivity index (EC50/MIC) [9]: (30) | MIC [10]: 32 mg/L (≈ 58.1 µM) | selectivity index (EC50/MIC) [10]: (8) | MIC [11]: > 32 mg/L | MIC [12]: > 32 mg/L | MIC [13]: > 32 mg/L | MIC [14]: > 32 mg/L | IC50 [15]: 4 mg/L (≈ 7.26 µM) | IC50 [16]: 1 mg/L (≈ 1.82 µM) | MIC [17]: 4 to 16 mg/L (≈ 7.26 to 29.1 µM)

NCCCCN1C(=O)N(CCCCN)C(=O)C(Cc2ccc(F)c3ccccc23)(Cc2ccc(F)c3ccccc23)C1=O [7(v), 1,3-bis(4-aminobutyl)-5,5-bis((4-fluoronaphtalen-1-yl)methyl)pyrimidin-2,4,6(1H,3H,5H)-trione]
MIC [1]: 1 mg/L (≈ 1.7 µM) | MIC [2]: 16 mg/L (≈ 27.3 µM) | MIC [3]: 8 mg/L (≈ 13.6 µM) | MIC [4]: 4 mg/L (≈ 6.82 µM) | MIC [5]: 8 mg/L (≈ 13.6 µM) | selectivity index (EC50/MIC) [5]: (20) | MIC [6]: 8 mg/L (≈ 13.6 µM) | selectivity index (EC50/MIC) [6]: (20) | MIC [7]: 4 mg/L (≈ 6.82 µM) | selectivity index (EC50/MIC) [7]: (40) | MIC [8]: 8 mg/L (≈ 13.6 µM) | selectivity index (EC50/MIC) [8]: (20) | MIC [9]: 4 mg/L (≈ 6.82 µM) | selectivity index (EC50/MIC) [9]: (40) | MIC [10]: 16 mg/L (≈ 27.3 µM) | selectivity index (EC50/MIC) [10]: (10) | MIC [11]: 32 mg/L (≈ 54.5 µM) | selectivity index (EC50/MIC) [11]: (5) | MIC [12]: 32 mg/L (≈ 54.5 µM) | selectivity index (EC50/MIC) [12]: (5) | MIC [13]: > 32 mg/L | MIC [14]: 32 mg/L (≈ 54.5 µM) | selectivity index (EC50/MIC) [14]: (5) | IC50 [15]: 4 mg/L (≈ 6.82 µM) | IC50 [16]: 1 mg/L (≈ 1.7 µM) | MIC [17]: 4 to 16 mg/L (≈ 6.82 to 27.3 µM)

NCCCCN1C(=O)N(CCCCN)C(=O)C(Cc2cc(C(F)(F)F)cc(C(F)(F)F)c2)(Cc2cc(C(F)(F)F)cc(C(F)(F)F)c2)C1=O [7(vi)]
MIC [1]: 1 mg/L (≈ 1.38 µM) | MIC [2]: 8 mg/L (≈ 11.1 µM) | MIC [3]: 8 mg/L (≈ 11.1 µM) | MIC [4]: 8 mg/L (≈ 11.1 µM) | MIC [5]: 8 mg/L (≈ 11.1 µM) | selectivity index (EC50/MIC) [5]: (23) | MIC [6]: 16 mg/L (≈ 22.1 µM) | selectivity index (EC50/MIC) [6]: (11) | MIC [7]: 8 mg/L (≈ 11.1 µM) | selectivity index (EC50/MIC) [7]: (23) | MIC [8]: 16 mg/L (≈ 22.1 µM) | selectivity index (EC50/MIC) [8]: (11) | MIC [9]: 8 mg/L (≈ 11.1 µM) | selectivity index (EC50/MIC) [9]: (23) | MIC [10]: 32 mg/L (≈ 44.3 µM) | selectivity index (EC50/MIC) [10]: (6) | MIC [11]: 32 mg/L (≈ 44.3 µM) | selectivity index (EC50/MIC) [11]: (6) | MIC [12]: 32 mg/L (≈ 44.3 µM) | selectivity index (EC50/MIC) [12]: (6) | MIC [13]: > 32 mg/L | MIC [14]: 32 mg/L (≈ 44.3 µM) | selectivity index (EC50/MIC) [14]: (6)

N=C(N)NCCCCN1C(=O)N(CCCCNC(=N)N)C(=O)C(Cc2ccc3ccccc3c2)(Cc2ccc3ccccc3c2)C1=O [8(iv), 1,1′-(4,4′-(5,5-bis(naphthalen-2-ylmethyl)-2,4,6-trioxodihydropyrimidine-1,3(2H,4H)-diyl)bis(butane-4,1-diyl))-diguanidine]
MIC [1]: 0.25 mg/L (≈ 0.394 µM) | MIC [2]: 1 mg/L (≈ 1.58 µM) | MIC [3]: 8 mg/L (≈ 12.6 µM) | MIC [4]: 1 mg/L (≈ 1.58 µM) | MIC [5]: 16 mg/L (≈ 25.2 µM) | selectivity index (EC50/MIC) [5]: (8) | MIC [6]: 16 mg/L (≈ 25.2 µM) | selectivity index (EC50/MIC) [6]: (8) | MIC [7]: 8 mg/L (≈ 12.6 µM) | selectivity index (EC50/MIC) [7]: (17) | MIC [8]: 16 mg/L (≈ 25.2 µM) | selectivity index (EC50/MIC) [8]: (8) | MIC [9]: 8 mg/L (≈ 12.6 µM) | selectivity index (EC50/MIC) [9]: (17) | MIC [10]: 16 mg/L (≈ 25.2 µM) | selectivity index (EC50/MIC) [10]: (8) | MIC [11]: 16 mg/L (≈ 25.2 µM) | selectivity index (EC50/MIC) [11]: (8) | MIC [12]: 16 mg/L (≈ 25.2 µM) | selectivity index (EC50/MIC) [12]: (8) | MIC ([13]; K. pneumoniae K47-25, resistant to colistin): 16 mg/L (≈ 25.2 µM) | selectivity index (EC50/MIC) ([13]; RBC EC50 / MIC, K. pneumoniae K47-25, resistant to colistin): (8) | MIC [14]: 16 mg/L (≈ 25.2 µM) | selectivity index (EC50/MIC) [14]: (8) | IC50 [15]: 1 mg/L (≈ 1.58 µM) | IC50 [16]: 8 mg/L (≈ 12.6 µM) | MIC [17]: 8 to 16 mg/L (≈ 12.6 to 25.2 µM)
